This experiment addresses T1, hERG channels (Homo sapiens, UniProt Q12809).
T1 construct: expressed in transfected cells
In words: Qpatch hERG assay (automated patch clamp, whole-cell tail current). The class given is cell-based. The settings on record: CHO cell line stably expressing hERG channels; highest test concentration 30 μM. On the procedure: • Assay platform & method: Automated patch clamp (Qpatch-48) • Cell source: CHO cell line stably expressing hERG channels • Measured parameter: Whole-cell tail current of hERG channels • Test concentration: 6 concentrations (30, 10, 3, 1, 0.3, 0.1 μM)
Example: Qpatch hERG Assay

A value given as a limit tells only on which side of the number the result lay.

T1 sequence (Q12809 whole entry): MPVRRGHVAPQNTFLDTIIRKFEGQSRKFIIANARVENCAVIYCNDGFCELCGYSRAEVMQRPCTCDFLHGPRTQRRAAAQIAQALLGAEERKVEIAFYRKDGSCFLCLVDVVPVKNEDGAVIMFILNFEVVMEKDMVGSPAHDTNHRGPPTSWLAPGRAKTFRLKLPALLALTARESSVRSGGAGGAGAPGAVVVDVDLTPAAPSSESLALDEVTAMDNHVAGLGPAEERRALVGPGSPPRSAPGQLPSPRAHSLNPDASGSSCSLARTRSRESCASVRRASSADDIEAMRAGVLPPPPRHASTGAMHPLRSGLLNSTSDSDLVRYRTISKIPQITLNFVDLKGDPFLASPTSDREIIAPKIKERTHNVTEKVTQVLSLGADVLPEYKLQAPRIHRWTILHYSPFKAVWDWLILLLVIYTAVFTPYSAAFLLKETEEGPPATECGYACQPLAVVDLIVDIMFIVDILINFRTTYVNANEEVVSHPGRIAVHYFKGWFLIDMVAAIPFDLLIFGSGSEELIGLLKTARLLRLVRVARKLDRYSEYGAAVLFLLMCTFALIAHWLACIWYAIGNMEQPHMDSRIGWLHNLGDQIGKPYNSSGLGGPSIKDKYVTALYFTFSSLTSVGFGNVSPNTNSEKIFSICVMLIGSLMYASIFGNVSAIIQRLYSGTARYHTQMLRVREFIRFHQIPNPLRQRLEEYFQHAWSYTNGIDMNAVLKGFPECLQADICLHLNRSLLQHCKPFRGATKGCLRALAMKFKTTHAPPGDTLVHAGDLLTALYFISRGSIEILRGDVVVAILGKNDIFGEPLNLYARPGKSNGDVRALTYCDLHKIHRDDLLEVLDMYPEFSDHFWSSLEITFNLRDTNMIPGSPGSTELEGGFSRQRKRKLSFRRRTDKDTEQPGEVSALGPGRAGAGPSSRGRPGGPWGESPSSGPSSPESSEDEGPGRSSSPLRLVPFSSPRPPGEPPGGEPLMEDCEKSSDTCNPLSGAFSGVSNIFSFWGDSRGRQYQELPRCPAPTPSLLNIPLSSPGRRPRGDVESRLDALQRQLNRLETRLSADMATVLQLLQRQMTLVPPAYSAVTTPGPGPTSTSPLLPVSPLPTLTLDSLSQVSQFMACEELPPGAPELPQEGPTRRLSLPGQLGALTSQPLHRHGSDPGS

For orientation: IC50 means the midpoint of a concentration-inhibition curve. The low end stands for greater potency in that assay, the high end for weaker potency in that assay. For `COc1ccc(F)c(S(=O)(=O)Nc2ccc(-c3ccc4c(N)n[nH]c4n3)cc2)c1` [J, N-(4-(3-amino-1H-pyrazolo[3,4-b]pyridin-6-yl)-phenyl)-2-fluoro-5-methoxybenzenesulfonamide], the IC50 was > 30 µM.

Values taken from patent US11236083B2, “Compounds and pharmaceutical compositions for modulating SGK activity, and methods thereof” (NEW ERA PHARMA, INC., priority 2016, dated 2022).
